Data published in PMC10029980 (Journal of medicinal chemistry, 2022).
Values belong to the molecule of their own block, whether it stands above or below them.

Experiments:
[1] = molecular target: human recombinant PAK1 (kinase domain) (Homo sapiens, UniProt Q13153); test: Z'-LYTE FRET kinase assay, PAK1 inhibition; assay type: biochemical; conditions: for PAK1 inhibitory activity and selectivity of NVS-PAK1-1 conjugates: tested for PAK1, PAK2 and PAK4 inhibition (Table S1)
[2] = molecular target: human recombinant PAK2 (full length) (Homo sapiens, UniProt Q13177); test: Z'-LYTE FRET kinase assay, PAK2 inhibition; assay type: biochemical
human recombinant PAK2 (full length), sequence (Q13177 whole entry): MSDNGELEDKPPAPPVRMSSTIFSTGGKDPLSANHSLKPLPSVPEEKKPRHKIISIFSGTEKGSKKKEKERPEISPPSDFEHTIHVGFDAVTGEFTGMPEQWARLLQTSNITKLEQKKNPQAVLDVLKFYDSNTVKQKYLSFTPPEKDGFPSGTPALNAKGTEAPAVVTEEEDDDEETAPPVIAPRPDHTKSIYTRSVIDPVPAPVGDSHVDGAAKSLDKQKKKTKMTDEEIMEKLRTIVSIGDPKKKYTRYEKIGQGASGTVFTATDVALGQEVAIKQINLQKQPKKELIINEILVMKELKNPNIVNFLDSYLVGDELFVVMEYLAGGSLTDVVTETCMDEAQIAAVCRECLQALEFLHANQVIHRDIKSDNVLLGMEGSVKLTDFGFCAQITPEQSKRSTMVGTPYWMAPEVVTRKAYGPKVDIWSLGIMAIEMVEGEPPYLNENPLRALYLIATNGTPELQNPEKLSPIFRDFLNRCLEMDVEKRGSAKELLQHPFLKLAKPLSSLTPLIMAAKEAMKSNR

PAK1 [3] = molecular target: T1, PAK1 (Homo sapiens, UniProt Q13153); test: PAK1 degradation by immunoblot in MCF7 and OVCAR3 cells; assay type: cell-based
T1 sequence (Q13153 whole entry): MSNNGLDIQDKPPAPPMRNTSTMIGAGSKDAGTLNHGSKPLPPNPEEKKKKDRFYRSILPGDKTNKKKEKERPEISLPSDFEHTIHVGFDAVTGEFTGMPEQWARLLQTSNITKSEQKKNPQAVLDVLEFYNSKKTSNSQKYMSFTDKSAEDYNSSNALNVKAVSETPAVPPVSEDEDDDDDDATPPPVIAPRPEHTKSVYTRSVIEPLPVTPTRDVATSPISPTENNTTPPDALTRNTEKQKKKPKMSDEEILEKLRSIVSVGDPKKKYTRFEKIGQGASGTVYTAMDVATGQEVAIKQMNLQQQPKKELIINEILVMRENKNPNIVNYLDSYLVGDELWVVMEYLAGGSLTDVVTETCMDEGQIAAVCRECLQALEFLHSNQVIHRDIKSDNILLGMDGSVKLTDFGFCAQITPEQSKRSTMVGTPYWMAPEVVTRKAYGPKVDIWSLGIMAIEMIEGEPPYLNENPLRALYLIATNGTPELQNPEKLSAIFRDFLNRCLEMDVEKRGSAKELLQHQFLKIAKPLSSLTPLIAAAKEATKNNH

PAK1 [4] = molecular target: T1, PAK1; test: PAK1 degradation in Panc1 cells; assay type: cell-based; conditions: compared with BJG-05-014 and BJG-05-027, Figure S2
Nluc-PAK1 = Nluc-PAK1 (Homo sapiens, UniProt Q13153+Q96SW2); test: Nluc-PAK1 luciferase quantitation of PAK1 expression; assay type: cell-based
Nluc-PAK1, sequence (Q13153 whole entry): as above
Nluc-PAK1, sequence (Q96SW2 whole entry): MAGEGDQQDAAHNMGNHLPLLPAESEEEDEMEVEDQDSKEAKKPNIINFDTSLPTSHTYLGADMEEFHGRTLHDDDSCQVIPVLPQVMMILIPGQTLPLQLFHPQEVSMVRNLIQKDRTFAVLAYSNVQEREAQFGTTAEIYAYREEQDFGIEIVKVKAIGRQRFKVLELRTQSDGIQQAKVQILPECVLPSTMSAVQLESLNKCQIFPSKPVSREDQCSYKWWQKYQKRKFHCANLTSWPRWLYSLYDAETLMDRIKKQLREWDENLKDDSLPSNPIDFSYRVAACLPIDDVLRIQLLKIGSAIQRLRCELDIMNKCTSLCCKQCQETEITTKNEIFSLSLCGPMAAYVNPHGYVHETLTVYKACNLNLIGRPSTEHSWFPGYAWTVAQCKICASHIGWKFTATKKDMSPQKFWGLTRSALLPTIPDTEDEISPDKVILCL
Nluc-PAK1, sequence (Q16531 whole entry partner): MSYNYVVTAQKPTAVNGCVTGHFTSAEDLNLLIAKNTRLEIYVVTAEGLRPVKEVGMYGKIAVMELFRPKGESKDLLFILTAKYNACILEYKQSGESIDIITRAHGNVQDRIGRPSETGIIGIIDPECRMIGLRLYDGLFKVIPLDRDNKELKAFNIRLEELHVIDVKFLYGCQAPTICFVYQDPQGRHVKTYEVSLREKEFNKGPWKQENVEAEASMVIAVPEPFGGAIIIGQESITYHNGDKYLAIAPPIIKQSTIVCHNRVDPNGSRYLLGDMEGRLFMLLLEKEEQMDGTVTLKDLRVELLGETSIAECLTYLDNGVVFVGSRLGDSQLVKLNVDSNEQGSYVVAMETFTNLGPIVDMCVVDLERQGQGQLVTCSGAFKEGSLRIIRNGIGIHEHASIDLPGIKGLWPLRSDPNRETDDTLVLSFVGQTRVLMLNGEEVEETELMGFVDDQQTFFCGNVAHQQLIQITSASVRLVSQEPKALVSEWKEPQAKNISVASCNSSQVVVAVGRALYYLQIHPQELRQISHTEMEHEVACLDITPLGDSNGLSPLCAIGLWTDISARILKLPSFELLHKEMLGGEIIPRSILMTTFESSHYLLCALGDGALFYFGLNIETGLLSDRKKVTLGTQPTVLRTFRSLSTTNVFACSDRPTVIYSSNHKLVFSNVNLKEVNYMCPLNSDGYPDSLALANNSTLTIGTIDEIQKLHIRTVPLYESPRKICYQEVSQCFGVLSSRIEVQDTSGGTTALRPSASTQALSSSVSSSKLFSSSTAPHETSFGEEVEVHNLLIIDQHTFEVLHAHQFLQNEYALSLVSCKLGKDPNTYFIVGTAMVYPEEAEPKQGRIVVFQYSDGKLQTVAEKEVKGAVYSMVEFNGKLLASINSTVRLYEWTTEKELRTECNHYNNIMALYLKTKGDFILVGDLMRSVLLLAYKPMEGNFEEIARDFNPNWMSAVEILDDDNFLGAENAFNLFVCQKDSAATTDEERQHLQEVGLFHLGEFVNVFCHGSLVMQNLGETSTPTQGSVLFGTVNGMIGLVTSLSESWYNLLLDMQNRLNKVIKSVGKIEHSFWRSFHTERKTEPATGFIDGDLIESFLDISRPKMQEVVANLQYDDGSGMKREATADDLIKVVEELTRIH

MOLT4 cells proteome = test: Global multiplexed mass spectrometry proteomics in MOLT4 cells; assay type: cell-based, human; conditions: 1 µM, 5 hr
[5] = tested on: phosphorylation of MEK1 at S298 and of ERK; test: MEK and ERK phosphorylation by immunoblot in OVCAR3 and MCF7 cells; assay type: cell-based; conditions: 10 nM, 24 hr
MCF7 cells = test: MTT cell proliferation, MCF7; assay type: cell-based; conditions: for EC50: Homo sapiens, MCF7, 96 h, read-out: EC50 anti-proliferative, MCF7
OVCAR3 cells = test: MTT cell proliferation, OVCAR3; assay type: cell-based; conditions: for EC50: Homo sapiens, OVCAR-3, 96 h, read-out: EC50 anti-proliferative, OVCAR3
OMM1 cells = test: MTT cell proliferation, OMM1; assay type: cell-based; conditions: MTT assay, 96 hr, PAK2-dependent cells
HEY-A8 cells = test: MTT cell proliferation, HEY-A8; assay type: cell-based; conditions: MTT assay, 96 hr, PAK2-dependent cells
[6] = cited from earlier work
[7] = MCF7 and OVCAR3 cells, 24 hr treatment

human recombinant PAK1 (kinase domain), sequence (Q13153 270-521 limits assumed): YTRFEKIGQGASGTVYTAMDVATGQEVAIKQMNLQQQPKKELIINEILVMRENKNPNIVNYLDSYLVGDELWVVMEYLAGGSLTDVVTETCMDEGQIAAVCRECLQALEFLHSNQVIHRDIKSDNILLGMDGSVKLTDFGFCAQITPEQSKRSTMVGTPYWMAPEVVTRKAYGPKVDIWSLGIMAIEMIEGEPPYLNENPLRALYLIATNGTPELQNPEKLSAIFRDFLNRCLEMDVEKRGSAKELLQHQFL

Structure (SMILES): O=C1CCC(N2C(=O)c3cccc(NCCOCCOCCC(=O)N4CC[C@H](NC5=Nc6cc(F)ccc6N(CC(F)F)c6ccc(Cl)cc65)C4)c3C2=O)C(=O)N1 (stereo partly drawn) [BJG-05-014, 4-((2-(2-(3-((S)-3-((2-chloro-5-(2,2-difluoroethyl)-8-fluoro-5H-dibenzo[b,e][1,4]diazepin-11-yl)amino)pyrrolidin-1-yl)-3-oxopropoxy)ethoxy)ethyl)amino)-2-(2,6-dioxopiperidin-3-yl)isoindoline-1,3-dione]
PAK1 inhibitory activity and selectivity of NVS-PAK1-1 conjugates [1]: retained PAK1 inhibitory activity and selectivity

Structure (SMILES): O=C1CCC(N2C(=O)c3cccc(NCCCCCNC(=O)N4CC[C@H](NC5=Nc6cc(F)ccc6N(CC(F)F)c6ccc(Cl)cc65)C4)c3C2=O)C(=O)N1 (stereo partly drawn) [BJG-05-027, (3S)-3-((2-chloro-5-(2,2-difluoroethyl)-8-fluoro-5H-dibenzo[b,e][1,4]diazepin-11-yl)amino)-N-(5-((2-(2,6-dioxopiperidin-3-yl)-1,3-dioxoisoindolin-4-yl)amino)pentyl)pyrrolidine-1-carboxamide]
PAK1 inhibitory activity and selectivity of NVS-PAK1-1 conjugates [1]: retained PAK1 inhibitory activity and selectivity

IC50 [2]: > 10000 nM | increase of selectivity over PAK2 relative to NVS-PAK-1 ([2]; Table S1): more than ten-fold | reduction in PAK1 levels by immunoblot (PAK1 [3]; Figure 2A): ~ 50% | concentration at which diminished PAK1 degradation (hook effect) was observed (PAK1 [3]; [7]): ≥ 1 µM | concentration of maximal PAK1 degradation (PAK1 [3]; [7]): 10 nM | PAK1 degradation (PAK1 [3]; MCF7 and OVCAR3 cells, 24 hr treatment, immunoblot): induced degradation of PAK1 | time to partial degradation of PAK1 (PAK1 [3]; MCF7 cells, 10 nM): ≤ 4 h | PAK1 degradation on co-treatment with bortezomib (proteasome inhibitor) (PAK1 [3]; co-treatment with bortezomib): prevented PAK1 destabilization | PAK1 degradation profile in Panc1 cells (PAK1 [4]): most promising profile | maximal loss of the PAK1 protein achieved (Nluc-PAK1): ≤ 70% | reduction in PAK1 expression (Nluc-PAK1; 10 nM, Nluc-PAK1 cells, 24 hr): approximately 70% | EC50 (MCF7 cells): 86 nM | EC50 (OVCAR3 cells): 100 nM
Structure (SMILES): O=C1CCC(N2C(=O)c3cccc(NCCCCCCCCNC(=O)N4CC[C@H](NC5=Nc6cc(F)ccc6N(CC(F)F)c6ccc(Cl)cc65)C4)c3C2=O)C(=O)N1 (stereo partly drawn) [BJG-05-039, (3S)-3-((2-chloro-5-(2,2-difluoroethyl)-8-fluoro-5H-dibenzo[b,e][1,4]diazepin-11-yl)amino)-N-(8-((2-(2,6-dioxopiperidin-3-yl)-1,3-dioxoisoindolin-4-yl)amino)octyl)pyrrolidine-1-carboxamide]
PAK1 inhibitory activity and selectivity of NVS-PAK1-1 conjugates [1]: retained PAK1 inhibitory activity and selectivity | downregulation of PAK1 in proteomic analysis (MOLT4 cells proteome): significant downregulation of this kinase was not apparent | downregulation of RNF166, Ikaros (IKZF1) and Aiolos (IKZF3) (MOLT4 cells proteome): strongly downregulated | phosphorylation of ERK [5]: inhibiting phosphorylation of ERK | phosphorylation of MEK S298 [5]: inhibited phosphorylation of MEK S298 | anti-proliferative activity, OMM1 (OMM1 cells): did not show increased efficacy relative to NVS-PAK1-1 | anti-proliferative activity, HEY-A8 (HEY-A8 cells): did not show increased efficacy relative to NVS-PAK1-1

inhibitor activity of linker conjugates of an ATP-competitive PAK1 inhibitor ([1]; Table S1): retained inhibitor activity
Structure (SMILES): Cc1ccc(CO)cc1N(Cc1ccccc1C#N)c1nc(Nc2ccc(N3CCN(CCOCCOCCNc4cccc5c4C(=O)N(C4CCC(=O)NC4=O)C5=O)CC3)c(S(C)(=O)=O)c2)ncc1F (centres unmarked) [BJG-05-093, 2-(((2-((4-(4-(2-(2-(2-((2-(2,6-dioxopiperidin-3-yl)-1,3-dioxoisoindolin-4-yl)amino)ethoxy)ethoxy)ethyl)piperazin-1-yl)-3-(methylsulfonyl)phenyl)amino)-5-fluoropyrimidin-4-yl)(5-(hydroxymethyl)-2-methylphenyl)amino)methyl)benzonitrile]

Structure (SMILES): CC(C)NC(=O)N1CC[C@H](NC2=Nc3cc(F)ccc3N(CC(F)F)c3ccc(Cl)cc32)C1 [NVS-PAK1-1]
IC50 [2]: 824 nM | phosphorylation of ERK [5]: no visible impact | phosphorylation of MEK S298 [5]: no visible impact | effect of combination with PAK shRNA on MCF7 cells (MCF7 cells; 100 nM, MCF7 cells with PAK shRNA): lethal | EC50 (MCF7 cells): 11800 nM | EC50 (OVCAR3 cells): 8900 nM | in vivo half-life [6]: short in vivo half-life

Structure (SMILES): Nc1cccc2c1CN(C1CCC(=O)NC1=O)C2=O (centres unmarked) [lenalidomide]
anti-proliferative activity, MCF7 (MCF7 cells; MTT assay, 96 hr): lacked significant antiproliferative effects | anti-proliferative activity, OVCAR3 (OVCAR3 cells; MTT assay, 96 hr): lacked significant antiproliferative effects
